Assays:
CYP1A2 = target: T1, CYP1A2 (Homo sapiens, UniProt P05177); set-up: purchased Abcam ab211075; method as in our previous study; conditions: ref our previous study; cited from earlier work
T1 sequence (P05177 1-516): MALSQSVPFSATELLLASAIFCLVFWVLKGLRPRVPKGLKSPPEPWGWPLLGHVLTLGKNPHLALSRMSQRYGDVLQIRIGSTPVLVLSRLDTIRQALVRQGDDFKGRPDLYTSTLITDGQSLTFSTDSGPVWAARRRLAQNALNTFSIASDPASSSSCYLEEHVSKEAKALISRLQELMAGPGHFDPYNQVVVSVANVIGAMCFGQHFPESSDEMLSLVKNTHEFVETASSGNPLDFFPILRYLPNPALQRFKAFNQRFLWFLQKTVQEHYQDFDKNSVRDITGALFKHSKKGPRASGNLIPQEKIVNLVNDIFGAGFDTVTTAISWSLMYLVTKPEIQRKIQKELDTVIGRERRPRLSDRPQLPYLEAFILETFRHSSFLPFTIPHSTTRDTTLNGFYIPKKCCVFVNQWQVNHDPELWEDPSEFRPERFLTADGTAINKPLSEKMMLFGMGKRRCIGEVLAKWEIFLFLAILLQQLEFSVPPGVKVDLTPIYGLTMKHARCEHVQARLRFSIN

OATP1B1 = target: T2, OATP1B1 (Homo sapiens, UniProt Q9Y6L6); set-up: method as in earlier report; conditions: same experimental model; ref earlier report; cited from earlier work
T2 construct: expressed in transfected cells; host or cells: A431
T2 sequence (Q9Y6L6 1-691): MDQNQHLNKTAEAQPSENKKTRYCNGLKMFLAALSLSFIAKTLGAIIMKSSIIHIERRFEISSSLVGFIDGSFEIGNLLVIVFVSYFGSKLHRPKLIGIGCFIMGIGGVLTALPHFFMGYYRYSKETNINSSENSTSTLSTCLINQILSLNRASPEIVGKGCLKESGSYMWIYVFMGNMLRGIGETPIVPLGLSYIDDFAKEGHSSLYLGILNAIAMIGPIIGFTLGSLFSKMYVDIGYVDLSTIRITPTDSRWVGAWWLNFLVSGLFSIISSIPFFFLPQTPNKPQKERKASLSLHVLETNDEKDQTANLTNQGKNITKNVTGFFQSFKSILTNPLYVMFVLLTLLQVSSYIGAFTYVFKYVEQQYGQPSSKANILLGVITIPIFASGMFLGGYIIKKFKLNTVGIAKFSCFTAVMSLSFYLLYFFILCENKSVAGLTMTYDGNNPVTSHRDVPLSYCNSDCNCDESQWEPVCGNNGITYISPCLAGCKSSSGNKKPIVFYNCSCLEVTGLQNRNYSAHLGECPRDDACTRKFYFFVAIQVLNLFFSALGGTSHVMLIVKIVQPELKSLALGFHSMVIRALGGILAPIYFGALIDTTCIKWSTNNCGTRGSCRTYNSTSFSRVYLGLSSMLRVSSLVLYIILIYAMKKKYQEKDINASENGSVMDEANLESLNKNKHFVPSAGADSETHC

MDR1 = target: T3, MDR1 (Homo sapiens, UniProt P08183); assay: MDR1-mediated NMQ vesicular transport (Sf9 membrane vesicles); assay type: biochemical; conditions: 0–50 μM; NMQ 5 μM
T3 construct: made in house; host or cells: Sf9 insect cells (baculovirus)
T3 sequence (P08183 whole entry): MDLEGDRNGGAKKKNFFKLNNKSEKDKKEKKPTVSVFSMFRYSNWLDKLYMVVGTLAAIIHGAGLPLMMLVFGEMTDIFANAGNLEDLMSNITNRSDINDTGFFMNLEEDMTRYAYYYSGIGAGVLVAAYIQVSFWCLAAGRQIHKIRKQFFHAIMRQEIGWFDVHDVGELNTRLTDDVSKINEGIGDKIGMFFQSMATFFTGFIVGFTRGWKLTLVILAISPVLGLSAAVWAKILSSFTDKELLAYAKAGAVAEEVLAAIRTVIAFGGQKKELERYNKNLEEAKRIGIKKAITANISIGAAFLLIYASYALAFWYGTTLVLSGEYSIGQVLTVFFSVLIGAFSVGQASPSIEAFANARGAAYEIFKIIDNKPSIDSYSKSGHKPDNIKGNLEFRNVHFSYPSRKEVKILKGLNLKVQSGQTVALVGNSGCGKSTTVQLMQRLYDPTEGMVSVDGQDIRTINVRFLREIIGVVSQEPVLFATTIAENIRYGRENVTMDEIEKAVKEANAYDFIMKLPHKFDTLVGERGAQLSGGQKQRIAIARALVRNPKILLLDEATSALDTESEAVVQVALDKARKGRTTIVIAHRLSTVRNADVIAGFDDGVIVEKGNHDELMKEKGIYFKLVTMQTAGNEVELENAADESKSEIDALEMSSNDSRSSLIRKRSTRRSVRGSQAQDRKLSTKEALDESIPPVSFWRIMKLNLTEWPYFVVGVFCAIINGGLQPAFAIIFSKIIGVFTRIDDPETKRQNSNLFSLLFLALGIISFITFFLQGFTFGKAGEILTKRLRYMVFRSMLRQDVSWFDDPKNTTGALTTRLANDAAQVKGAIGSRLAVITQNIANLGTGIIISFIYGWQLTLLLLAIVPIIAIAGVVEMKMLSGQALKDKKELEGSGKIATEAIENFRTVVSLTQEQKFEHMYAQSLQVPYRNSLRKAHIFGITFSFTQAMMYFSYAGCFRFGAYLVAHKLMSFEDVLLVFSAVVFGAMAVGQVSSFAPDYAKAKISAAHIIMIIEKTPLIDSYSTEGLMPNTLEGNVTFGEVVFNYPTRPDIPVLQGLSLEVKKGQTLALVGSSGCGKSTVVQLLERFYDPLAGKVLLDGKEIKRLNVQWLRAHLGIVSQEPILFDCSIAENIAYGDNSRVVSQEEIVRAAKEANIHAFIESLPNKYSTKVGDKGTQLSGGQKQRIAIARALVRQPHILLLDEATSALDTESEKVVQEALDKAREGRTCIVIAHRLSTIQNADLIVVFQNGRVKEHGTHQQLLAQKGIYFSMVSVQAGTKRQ
Procedure: Experiments were performed in insect membrane vesicles, as described previously. Briefly, human MDR1, BCRP, and MRP2 were expressed in Sf9 insect cells by baculoviruses. On the third day of infection, cells were collected and membrane vesicles were obtained by mechanical disruption and differential centrifugation. To get full activity for BCRP, the cholesterol levels of the vesicles were adjusted to the level of mammalian membranes. Vesicles were stored at −80 °C, and the total protein content of the preparations was measured by the Lowry method (used as a reference for the quantity). […] A 100 μL volume of fluorescence stabilizer was added to the samples (DMSO for LY, 0.1 M H2SO4 for NMQ, and 0.1 M NaOH for CDCF). Fluorescence of samples was measured by plate readers (Victor X3 and Enspire PerkinElmer; Waltham, MA) at appropriate wavelengths (filters in the Victor X3 reader were 405/535 nm for LY and 492/635 nm for CDCF; while in the Enspire reader, NMQ was measured at 360/430 nm excitation/emission wavelengths). ABC-related transport was calculated by subtracting passive uptake measured without Mg-ATP from values measured in the presence of Mg-ATP.

OATP1B3 = target: T4, OATP1B3 (Homo sapiens, UniProt Q9NPD5); set-up: method as in earlier report; conditions: same experimental model; ref earlier report; cited from earlier work
T4 construct: expressed in transfected cells; host or cells: A431
T4 sequence (Q9NPD5 1-702): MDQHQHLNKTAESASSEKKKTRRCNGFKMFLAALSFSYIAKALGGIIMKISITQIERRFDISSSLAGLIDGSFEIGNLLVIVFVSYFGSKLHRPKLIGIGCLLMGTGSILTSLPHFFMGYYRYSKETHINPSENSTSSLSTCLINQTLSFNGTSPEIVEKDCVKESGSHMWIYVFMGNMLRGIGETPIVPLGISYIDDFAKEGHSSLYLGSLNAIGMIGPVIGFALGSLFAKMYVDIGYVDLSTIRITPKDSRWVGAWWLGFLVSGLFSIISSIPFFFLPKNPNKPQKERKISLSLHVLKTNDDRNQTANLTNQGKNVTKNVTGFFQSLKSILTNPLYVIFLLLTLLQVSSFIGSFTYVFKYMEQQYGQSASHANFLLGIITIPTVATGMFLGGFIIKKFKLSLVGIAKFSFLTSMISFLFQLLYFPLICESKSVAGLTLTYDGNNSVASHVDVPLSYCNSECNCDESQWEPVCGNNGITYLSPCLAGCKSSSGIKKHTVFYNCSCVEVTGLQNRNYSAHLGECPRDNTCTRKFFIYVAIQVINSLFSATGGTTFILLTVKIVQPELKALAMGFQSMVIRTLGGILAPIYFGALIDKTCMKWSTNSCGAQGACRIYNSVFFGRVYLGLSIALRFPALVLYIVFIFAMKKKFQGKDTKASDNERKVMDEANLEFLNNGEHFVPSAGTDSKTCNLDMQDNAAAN

Structure (SMILES): C[C@H]1CCCC(=O)CCC/C=C/c2cc(O)cc(O)c2C(=O)O1 [ZEN, Zearalenone]
- IC50 (CYP1A2): 7.8 µM
- IC50 (OATP1B1): > 10 µM
- effect on MDR1-driven NMQ transport (MDR1): inhibition only at 50 μM concentration
- IC50 (OATP1B3): 8.1 µM
